Among the data in patent US9663473B2 (Actelion Pharmaceuticals Ltd, priority 2013, dated 2017) are EC50 values, retold here.

The target of this assay is T1, recombinant human ALX receptor (Homo sapiens, UniProt P25090).
T1 construct: expressed in transfected cells; host or cells: HEK293 (HEK293-hALXR-Gα16)
T1 sequence (P25090 1-351): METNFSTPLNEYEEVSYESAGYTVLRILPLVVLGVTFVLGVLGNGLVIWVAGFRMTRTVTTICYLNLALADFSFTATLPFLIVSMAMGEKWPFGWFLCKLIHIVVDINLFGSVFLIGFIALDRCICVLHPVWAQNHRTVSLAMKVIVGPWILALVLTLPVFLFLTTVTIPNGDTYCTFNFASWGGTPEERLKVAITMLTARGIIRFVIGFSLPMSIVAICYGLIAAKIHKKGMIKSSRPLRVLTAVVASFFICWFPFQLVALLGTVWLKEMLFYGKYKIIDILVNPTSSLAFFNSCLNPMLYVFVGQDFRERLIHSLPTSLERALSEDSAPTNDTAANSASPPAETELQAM
In words: Intracellular calcium measurements (FLIPR), ALX receptor agonistic activity. The note with it: HEK293-hALXR-Gα16 cells, Fluo-4 calcium signal, normalized to WKYMVm 10 nM. In kind it is cell-based. An outline of the steps:
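Agonist-induced calcium flux was read by FLIPR (488/540 nm) as baseline-subtracted peak emission, expressed relative to WKYMVm at 10 nM final. Cells used: HEK293-hALXR-Gα16, dye-loaded 60 min at 37° C. with 1 μM Fluo-4 AM before compound dose-response addition.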

Molecules are shown by their SMILES.

What is called EC50 is the concentration needed to bring the measured effect to its halfway point. Consider `COc1ccc(C[C@@H](NC(=O)NCCCO)c2nc3ccccc3[nH]2)cc1` [Example 95, (R)-1-(1-(1H-Benzo[d]imidazol-2-yl)-2-(4-methoxyphenyl)ethyl)-3-(3-hydroxypropyl)urea], for which the EC50 was determined as 195 nM.
Regarding `COc1ccc(C[C@@H](NC(=O)NCCc2ccccc2)c2nc3ccccc3[nH]2)cc1` [Example 67, (R)-1-(1-(1H-Benzo[d]imidazol-2-yl)-2-(4-methoxyphenyl)ethyl)-3-phenethylurea], the half-maximal effective concentration (EC50) stood at 415 nM.
Take `COc1ccc(C[C@@H](NC(=O)NCCO)c2nc3ccccc3[nH]2)cc1` [Example 94, (R)-1-(1-(1H-Benzo[d]imidazol-2-yl)-2-(4-methoxyphenyl)ethyl)-3-(2-hydroxyethyl)urea]: the EC50 came out at 570 nM.
For `COc1cc(F)c(CC(NC(=O)N[C@H]2CC[C@H](O)CC2)c2nc3ccccc3[nH]2)c(F)c1` (single isomer, unassigned; ent-1) [Example 316, 1-(1-(1H-Benzo[d]imidazol-2-yl)-2-(2,6-difluoro-4-methoxyphenyl)ethyl)-3-(trans-4-hydroxycyclohexyl)urea (ent-1)], the EC50 was 3.2 nM.
With `COc1ccc(C[C@@H](NC(=O)NCCc2ccc3c(c2)OCO3)c2nc3ccccc3[nH]2)cc1` [Example 299, (R)-1-(1-(1H-Benzo[d]imidazol-2-yl)-2-(4-methoxyphenyl)ethyl)-3-(2-(benzo[d][1,3]dioxol-5-yl)ethyl)urea], the EC50 is 167 nM.
As to `O=C(NC(Cc1ccc(Br)c(F)c1)c1nc2ccccc2[nH]1)NC12CCC(O)(CC1)CC2` (stereo not shown) [Example 230, 1-(1-(1H-Benzo[d]imidazol-2-yl)-2-(4-bromo-3-fluorophenyl)ethyl)-3-(4-hydroxybicyclo[2.2.2]octan-1-yl)urea], the EC50 worked out at 21 nM.
Consider `COc1ccc(C[C@@H](NC(=O)NC2CCCc3c(OC)cccc32)c2nc3ccccc3[nH]2)cc1` (stereo partly drawn) [Example 346, 1-((R)-1-(1H-Benzo[d]imidazol-2-yl)-2-(4-methoxyphenyl)ethyl)-3-(5-methoxy-1,2,3,4-tetrahydronaphthalen-1-yl)urea], for which the EC50 came out at 56 nM.
To `COc1ccc(C[C@@H](NC(=O)N[C@H]2CC[C@H](O)CC2)c2nc3ccccc3[nH]2)cc1` [Example 4, 1-((R)-1-(1H-Benzo[d]imidazol-2-yl)-2-(4-methoxyphenyl)ethyl)-3-(trans-4-hydroxycyclohexyl)urea] belongs 7.8 nM; to `COc1ccc(C[C@@H](NC(=O)NCC2CCCc3ccccc32)c2nc3ccccc3[nH]2)cc1` (stereo partly drawn) [Example 305, 1-((R)-1-(1H-Benzo[d]imidazol-2-yl)-2-(4-methoxyphenyl)ethyl)-3-((1,2,3,4-tetrahydronaphthalen-1-yl)methyl)urea], 80 nM; to `COc1ccc(C[C@@H](NC(=O)NC2CCNCC2)c2nc3ccccc3[nH]2)cc1` [Example 108, (R)-1-(1-(1H-Benzo[d]imidazol-2-yl)-2-(4-methoxyphenyl)ethyl)-3-(piperidin-4-yl)urea], 52 nM.
Regarding `COc1ccc(C[C@@H](NC(=O)NC(C)c2ccc(OC(F)(F)F)cc2)c2nc3ccccc3[nH]2)cc1` (stereo partly drawn) [Example 381, 1-((R)-1-(1H-Benzo[d]imidazol-2-yl)-2-(4-methoxyphenyl)ethyl)-3-(1-(4-(trifluoromethoxy)phenyl)ethyl)urea], the EC50 amounted to 1170 nM.
The result for `COc1ccc(CC(NC(=O)Nc2cc(C)nn2C)c2nc3ccccc3[nH]2)cc1` (stereo not shown) [Example 416, 1-(1-(1H-benzo[d]imidazol-2-yl)-2-(4-methoxyphenyl)ethyl)-3-(1,3-dimethyl-1H-pyrazol-5-yl)urea] reads 89 nM; that for `CCOc1ccc(CC(NC(=O)N[C@H]2CC[C@H](O)CC2)c2nc3ccccc3[nH]2)cc1` (relative stereo) [Example 77, 1-(1-(1H-Benzo[d]imidazol-2-yl)-2-(4-ethoxyphenyl)ethyl)-3-(trans-4-hydroxycyclohexyl)urea], 203 nM.
On to `COc1ccc(CC(NC(=O)NC2CCC(C)(O)CC2)c2nc3ccccc3[nH]2)cc1F` (single isomer, unassigned; ent-1) [Example 308, 1-(1-(1H-Benzo[d]imidazol-2-yl)-2-(3-fluoro-4-methoxyphenyl)ethyl)-3-(trans-4-hydroxy-4-methylcyclohexyl)urea (ent-1)], for which the EC50 is 2.7 nM.
To `COc1ccc(CC(NC(=O)NC23CCC(O)(CC2)CC3)c2nc3ccccc3[nH]2)c(F)c1` (stereo not shown) [Example 233, 1-(1-(1H-Benzo[d]imidazol-2-yl)-2-(2-fluoro-4-methoxyphenyl)ethyl)-3-(4-hydroxybicyclo[2.2.2]octan-1-yl)urea] belongs 3.7 nM.
To `COc1ccc(C[C@@H](NC(=O)NCc2ccc(CN(C)C)cc2)c2nc3ccccc3[nH]2)cc1` [Example 272, (R)-1-(1-(1H-Benzo[d]imidazol-2-yl)-2-(4-methoxyphenyl)ethyl)-3-(4-((dimethylamino)methyl)benzyl)urea] belongs 339 nM; to `COc1ccc(C[C@@H](NC(=O)N[C@H](C)c2ccc(OC)cc2)c2nc3ccccc3[nH]2)cc1` [Example 336, 1-((R)-1-(1H-Benzo[d]imidazol-2-yl)-2-(4-methoxyphenyl)ethyl)-3-((R)-1-(4-methoxyphenyl)ethyl)urea], 248 nM; to `C[C@]1(O)CC[C@H](NC(=O)NC(Cc2ccc(Br)c(F)c2)c2nc3ccccc3[nH]2)CC1` (mixture of isomers) [Example 231, 1-(1-(1H-Benzo[d]imidazol-2-yl)-2-(4-bromo-3-fluorophenyl)ethyl)-3-(trans-4-hydroxy-4-methylcyclohexyl)urea], 5.2 nM.
Regarding `COc1ccc(C[C@@H](NC(=O)N[C@@H]2CCNC[C@@H]2F)c2nc3ccccc3[nH]2)cc1` (relative stereo) [Example 164, 1-((R)-1-(1H-Benzo[d]imidazol-2-yl)-2-(4-methoxyphenyl)ethyl)-3-((3S*,4R*)-3-fluoropiperidin-4-yl)urea], the EC50 was 25 nM.
Take `COc1ccc(C[C@@H](NC(=O)NCc2ccccc2Cn2cncn2)c2nc3ccccc3[nH]2)cc1` [Example 31, (R)-1-(2-((1H-1,2,4-Triazol-1-yl)methyl)benzyl)-3-(1-(1H-benzo[d]imidazol-2-yl)-2-(4-methoxyphenyl)ethyl)urea]: the EC50 was found to be 26 nM.
The result for `COc1ccc(C[C@@H](NC(=O)NC2CN3CCC2CC3)c2nc3ccccc3[nH]2)cc1` (stereo partly drawn) [Example 89, 1-((R)-1-(1H-Benzo[d]imidazol-2-yl)-2-(4-methoxyphenyl)ethyl)-3-(quinuclidin-3-yl)urea] reads 15 nM; that for `COc1ccc(CC(NC(=O)NCCCN(C)C)c2nc3ccccc3[nH]2)cc1` (stereo not shown) [Example 388, 1-(1-(1H-Benzo[d]imidazol-2-yl)-2-(4-methoxyphenyl)ethyl)-3-(3-(dimethylamino)propyl)urea], 1070 nM.
To `COC(=O)C1CCCC(NC(=O)N[C@H](Cc2ccc(OC)cc2)c2nc3ccccc3[nH]2)C1` (stereo partly drawn) [Example 228, Methyl 3-(3-((R)-1-(1H-benzo[d]imidazol-2-yl)-2-(4-methoxyphenyl)ethyl)ureido)cyclohexanecarboxylate] belongs 11 nM; to `COc1ccc(C[C@@H](NC(=O)N[C@H](C)c2ccccc2OC)c2nc3ccccc3[nH]2)cc1` [Example 327, 1-((R)-1-(1H-Benzo[d]imidazol-2-yl)-2-(4-methoxyphenyl)ethyl)-3-((R)-1-(2-methoxyphenyl)ethyl)urea], 310 nM.
Turning to `COc1ccc(C[C@@H](NC(=O)NC2CCCN(C)C2)c2nc3ccccc3[nH]2)cc1` (stereo partly drawn) [Example 117, 1-((R)-1-(1H-Benzo[d]imidazol-2-yl)-2-(4-methoxyphenyl)ethyl)-3-(1-methylpiperidin-3-yl)urea], the EC50 stood at 62 nM.
On to `O=C(N[C@H](Cc1ccc(Br)cc1)c1nc2ccc(F)cc2[nH]1)N[C@H]1CC[C@H](O)CC1` [Example 133, 1-((R)-2-(4-Bromophenyl)-1-(6-fluoro-1H-benzo[d]imidazol-2-yl)ethyl)-3-(trans-4-hydroxycyclohexyl)urea], for which the concentration giving a half-maximal response (EC50) is 3.4 nM.
For `COc1ccc(CC(NC(=O)Nc2ccnn2-c2ccc(C(C)C)cc2)c2nc3ccccc3[nH]2)cc1` (stereo not shown) [Example 407, 1-(1-(1H-benzo[d]imidazol-2-yl)-2-(4-methoxyphenyl)ethyl)-3-(1-(4-isopropylphenyl)-1H-pyrazol-5-yl)urea], the EC50 was 156 nM.
As to `COc1ccc(C[C@@H](NC(=O)NCc2ccccc2)c2nc3ccccc3[nH]2)cc1` [Example 392, (R)-1-(1-(1H-Benzo[d]imidazol-2-yl)-2-(4-methoxyphenyl)ethyl)-3-benzylurea], the EC50 amounted to 2410 nM.
In the case of `COc1ccc(CC(NC(=O)N[C@H]2CC[C@H](O)CC2)c2nc3ncncc3[nH]2)cc1` (relative stereo) [Example 426, 1-(trans-4-hydroxycyclohexyl)-3-(2-(4-methoxyphenyl)-1-(7H-purin-8-yl)ethyl)urea], the EC50 is 374 nM.
`O=C(N[C@H](Cc1ccc(Br)cc1)c1nc2ccc(Cl)cc2[nH]1)NC12CCC(O)(CC1)CC2` [Example 194, (R)-1-(2-(4-Bromophenyl)-1-(6-chloro-1H-benzo[d]imidazol-2-yl)ethyl)-3-(4-hydroxybicyclo[2.2.2]octan-1-yl)urea]: the concentration for a half-maximal effect (EC50) came out at 1.9 nM.
The result for `COc1ccc(CC(NC(=O)Nc2ccccc2)c2nc3ccccc3[nH]2)cc1` (stereo not shown) [Example 169, 1-(1-(1H-Benzo[d]imidazol-2-yl)-2-(4-methoxyphenyl)ethyl)-3-phenylurea] reads 51 nM.
